Assay results reported in patent US20220064238A1, “Methods And Compositions For Modifying Transcription Factor Activity by Targeting The Human Mediator Complex Using Cell Penetrating Memetic Peptides And Methods of Treating Cancer Using The Same” (The Regents of the University of Colorado, a body corporate, priority 2020, published 2022).
Bridge positions count the residues as written; N and C are the ends. Square brackets hold non-standard residues; d marks the D form. Peptide text beside a SMILES is read from it. R8 = C=CCCCCCC[C@@](C)(N)C(=O)O; S5 = C=CCCC[C@](C)(N)C(=O)O

What was measured:
cells = details: prior analysis; cited from earlier work
[1] = system: pol II occupancy at the p21 locus; assay: ChIP of RNA polymerase II occupancy at CDKN1A (p21); format: cell-based; details: 3 h post-Nutlin, Ser5-phosphorylated pol II ChIP
Description: FIGS. 13A-B. Summary of ChIP experiments, showing that RNA polymerase II occupancy at the p53 target gene CDKN1A (p21) is reduced in cells treated with the bivalent peptide (peptide). A) Time course following Nutlin induction, to determine ideal time point to probe pol II occupancy at the p21 locus. […] However, pol II occupancy is reduced in cells treated with the bivalent peptide. […] Pol II phosphorylated at serine-5 of its C-terminal domain was used for ChIP analysis, because this is a proxy for initiating pol II at gene promoters (start sites). Data represent biological triplicates. Similar results were observed genome-wide, using ChIP-seq, although the timing of induction across p53 target genes will vary (data not shown).

[2] = system: p53 target genes in HCT116 cells; assay: RNA-Seq / GSEA in HCT116 cells, p53 pathway genes; format: cell-based, human
Protocol: To circumvent this issue, we used a well-tested electroporation protocol to enhance cell uptake of the bivalent peptide (see Methods). HCT116 cells were evaluated either in the presence of bivalent peptide or vehicle (water), with or without Nutlin-3a (FIG. 3A, B). Nutlin-3a is a small molecule that activates and stabilizes p53 by inhibiting MDM2, a repressor of p53. […] After 3 h Nutlin-3a treatment (or DMSO control, ±bivalent peptide), nuclear RNA was isolated and biological replicate RNA-Seq libraries were prepared (FIG. 9A; Table 1).
A confounding issue with these experiments was that cellular uptake of the bivalent peptide could not be accurately measured and could potentially vary from experiment-to-experiment. To assess this possibility more thoroughly, we completed an additional round of RNA-Seq experiments in control vs. Nutlin-treated HCT116 cells (FIG. 9B; Table 1). These additional experiments (RNA-Seq experiment 2) were completed with a slightly modified protocol that included treatment in serum-free media as an effort to enhance peptide uptake. Importantly, the data from RNA-Seq experiment 2 (biological triplicate; FIG. 10) were consistent with the first series of biological replicates (RNA-Seq experiment 1; FIG. 3C-E) and in each case, repression of p53-dependent transcription by the bivalent peptide tracked with Nutlin induction levels (FIG. 9CE). Nutlin-induced activation of p53 target genes was inhibited in the presence of the bivalent peptide, providing further evidence that the bivalent peptide blocks p53 response in cells. However, the scope and magnitude of the effect was reduced in this second, independent set of RNA-Seq experiments (e.g. compare FIG. 3C, D & FIG. 10C, D). This broadly consistent but variable magnitude effect can also be seen from RNA-Seq reads at specific p53 target genes (RNA-Seq experiment 1, FIG. 4A, B; RNA-Seq experiment 2, FIG. 4C, D). The overall p53 response to Nutlin-3a was reduced in RNA Seq experiment 2 (GSEA p53 pathway NES=2.76 in RNA-Seq experiment 1 vs. NES=1.59 in RNASeq experiment 2), which therefore reduced the transcriptional impact of the bivalent peptide. However, we cannot rule out variable cellular uptake of the bivalent peptide as a contributing factor.
Electroporation of bivalent peptide into HCT116 cells (RNA-Seq experiment 1): Two 6-well plates (HCT116 cells) were grown to about 80% confluency. Cells were then trypsinized, washed with PBS, and resuspended in 150 μL Neon Buffer R. The cells were then split into two groups: No peptide and 10 μM peptide. The cells were then drawn into a 10 μL Neon pipet tip, electroporated and ejected into 2 mL of McCoy's 5A media without antibiotic. For each experiment, two cell electroporation aliquots were added to media containing either 0.1% DMSO (control) or 10 μM Nutlin-3a (in DMSO, to a final concentration of 0.1%). For wells containing cells electroporated with peptide, an additional 200 nM peptide was added to the well to allow for peptide uptake during the experiment. The 6-well plate was then placed back at 37° C. for 3 hours. After 3 hours, cells were scraped from the plates, transferred to a 15 mL conical vial, pelleted at 1,000×g, and washed in 10 mL phosphate buffered saline (PBS) solution. To isolate the nuclei, cells were resuspended in 10 mL lysis buffer (10 mM Tris-HCl, pH 7.4, 2 mM MgCl2, 3 mM CaCl2), 0.5% NP-40, 10% glycerol) and thoroughly mixed. The nuclei were spun down at 1,000×g for 10 minutes, the lysis buffer was removed, and 1 mL of TRIzol was added. The nuclear RNA was isolated as described in the TRIzol instructions, except an additional phenol/chloroform extraction and chloroform-only extraction were performed to reduce contaminants. RNA was precipitated and washed twice with 75% ethanol to further remove contaminants. The RNA was then converted to cDNA using the High Capacity cDNA kit from Thermo Fisher Scientific. […]

basal transcription = assay: In vitro transcription on naked DNA templates, basal (no activator); format: biochemical, human; details: no GAL4-p53, naked DNA templates
Description: To screen peptides for the ability to selectively block p53-dependent transcription, we required an assay that enabled p53-dependent activation but that could also support basal (i.e. activator-independent) transcription. The present inventors had previously established an in vitro transcription assay (using highly purified human factors (FIG. 1A). A key feature of this assay was that both activated and basal transcription could be reconstituted on naked DNA templates (i.e. DNA templates not assembled into chromatin). To adapt this assay for purposes of measuring basal vs. p53-activated transcription, we generated templates with Gal4 DNA binding sites upstream of the adenovirus major late promoter sequence (FIG. 5A, B). Upon titration of a Gal4 DNA Binding Domain (DBD)-p53 Activation Domain (AD; residues 1-70) fusion protein into this system, we observed pol II-dependent transcription that was dependent on p53AD and Mediator (FIG. 5C). Reactions containing Gal4-p53AD generally produced about two- to four-fold more transcripts compared to reactions with no activator (FIG. 5C). Because experiments without Gal4-p53AD produced a low level of “basal” transcription that could be quantitated, this system allowed assessment of both p53-activated and basal transcription. […]

[3] = target: human Mediator complex (human)

Sequence of GST-VP16AD (residues 411-490) (P08515 1-218, tags or fused parts left off): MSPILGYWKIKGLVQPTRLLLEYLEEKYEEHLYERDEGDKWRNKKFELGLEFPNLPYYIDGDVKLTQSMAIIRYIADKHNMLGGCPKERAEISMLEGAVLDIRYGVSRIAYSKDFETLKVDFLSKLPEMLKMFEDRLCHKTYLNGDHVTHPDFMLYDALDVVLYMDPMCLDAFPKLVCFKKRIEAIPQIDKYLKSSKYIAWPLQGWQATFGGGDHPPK

CC(=O)N[C@@H](CCCNC(=N)N)C(=O)N[C@@H](CO)C(=O)N[C@@H](CCC(N)=O)C(=O)N[C@@H](CCC(=O)O)C(=O)N[C@@H](CCCNC(=N)N)C(=O)N[C@@H](Cc1ccccc1)C(=O)N[C@]1(C)CCCCCCC=CCCC[C@@](C)(C(=O)N[C@@H](CCCNC(=N)N)C(=O)N[C@@H](CCCNC(=N)N)C(N)=O)NC(=O)[C@H](CC(C)C)NC(=O)[C@H](CCCNC(=N)N)NC(=O)[C@H](CCCCN)NC(=O)[C@H](Cc2c[nH]c3ccccc23)NC(=O)[C@H](CC(C)C)NC(=O)[C@H](CC(=O)O)NC1=O [BP1.4] (Ac-RSQERF[R8]DLWKRL[S5]RR-NH2; staple 7-14; C-terminus assumed)
cellular uptake (cells): not effectively taken up by cells

COc1ccc(C2=N[C@@H](c3ccc(Cl)cc3)[C@@H](c3ccc(Cl)cc3)N2C(=O)N2CCNC(=O)C2)c(OC(C)C)c1 [Nutlin-3a, reference compound]
pol II occupancy at the p21 locus [1]: strongly induced pol II at the p21 locus | expression of p53 target genes ([2]; Nutlin-3a 10 μM, 3 h, HCT116): induced expression of p53 target genes | GSEA p53 pathway NES, Nutlin response without peptide ([2]; RNA-Seq experiment 1): 2.76 | GSEA p53 pathway NES, Nutlin response without peptide ([2]; RNA-Seq experiment 2): 1.59

BP1.5: N-acetylated hydrocarbon-stapled penta-arg p53AD1 mimic, SEQ ID NO. 5 RRETFZDRWKRLXRN
effect on basal transcription, initial screen (basal transcription; 5 μM peptide): did not affect basal transcription | effect on basal transcription, follow-up experiments (basal transcription): negatively affected basal transcription to some degree

GST-VP16AD (residues 411-490) (from UniProt P08515 1-218; P06492 411-490)
fold change of Mediator-bound VP16 with bivalent peptide vs. without [3]: 1.67 fold
